In patent US20240248442A1, “COMPUTER-IMPLEMENTED METHOD FOR APPLYING A GLUTAMINE […] ON AN AG[…]” (BASF SE, priority 2021, published 2024):

Tested on: GLXMA (Glycine max; soybean plant)
Assay: Greenhouse spray test of glufosinate efficacy on soybean plants under different nitrogen supply
Assay type: in vivo
Conditions: GF-solution 280 g/l glufosinate-ammonium, 300 g a.i./ha, water rate 200 l/ha, assessed 3 and 7 daa (time of this value not stated)
Protocol: GLXMA (Glycine max; soybean plant) plants were grown on soil in a green house. Before separation into single pots plants were watered with demineralized water (VE-water). After separation into single pots and splitting into four different nourishing groups, the pots were individually watered with 50 ml of the respective nutrient solution. The following recipe for the full-nutrient solution (5 mM N) mentioned in the book “Diagnose des Ernährungszustandes von Kulturpflanzen”, ISBN: 978-3-86263-118-6, table 3-2, page 94 has been used:
Plants were grown until the growth stage GS 61 (58-74 cm), where first symptoms of nutrient deficiency became visible. This included yellowing of the leaves which were watered with N-deficient media.
A spray application was performed in a high speed spray cabin with the following settings: used nozzle: TT 110 02; pressure: 3 bar; speed: 1.33 m/s; temperature: 22° C.; relative spray humidity: 55%
Spray solution: A GF-solution comprising 280 g/l glufosinate-ammonium is sprayed with an a.i. dose rate of 300 g/ha and a water rate of 200 l/ha. The control plants were sprayed with water (ddH2O) only. After spraying, all plants were watered with VE-water. A biological assessment was performed 3 and 7 days after application (daa).
In other words, to achieve an N-deficiency, the plants were separated in four different groups, which were watered with 4 different nutrient solutions. The “full” medium contained a final concentration of 5 mM N nitrogen-sources, whereas the N-deficiency media contained either 0 mM N (“null” medium) or 1.25 mM N and 2.5 mM N (“deficiency” media). Nutrient deficiency became visible at the GS 61.
In FIGS. 2 and 3, GLXMA is Glycine max (soybean plant), G ai/ha is grams of active ingredient per hectare, CWD is the control group without treatment, GF-Solution is the solution comprising 280 g/l glufosinate-ammonium. At full (5 mM) or half full (2.5 mM) nitrogen supply was detected and rated to an average of 35. Lowering the nitrogen supply to a level of 1.25 mM increases the efficacy of glufosinate to 48, which is visibly by more chlorotic and necrotic tissue. Under complete nitrogen deficiency the symptoms are boosted and result in an average efficacy rating of 75.

CP(=O)(O)CCC(N)C(=O)O (racemic) [glufosinate, (2RS)-2-amino-4-[hydroxy-(methyl)phosphinoyl]butyric acid]
average efficacy rating (biological assessment) (complete nitrogen deficiency (0 mM N)): 75
average efficacy rating (biological assessment) (full (5 mM) nitrogen supply): 35
average efficacy rating (biological assessment) (half full (2.5 mM) nitrogen supply): 35
average efficacy rating (biological assessment) (nitrogen supply 1.25 mM): 48
